Values quoted from earlier work as cited in US20050238693A1, “Process for the preparation and activation of susbstances and a means of producing same” (priority 2002, published 2005).

Tested on: bone loss
Details: 400 mg dose twice a day; women relatively soon after menopause

Structure (SMILES): [Ca] [Calcium]
- bone loss and bone density in spine, femoral neck and radial shaft: avert bone loss and stabilized bone density
